The results in this text go back to PubChem BioAssay (NCI).

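Following 48 hours of exposure in 96-well plates, responses at five concentrations were used to interpolate endpoints linearly. TGI: concentration producing complete growth inhibition.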

Among the test systems are OVCAR-4 ovarian; SK-MEL-2 melanoma; PC-3 prostate; OVCAR-5 ovarian; SW-620 colon; MDA-N; OVCAR-8 ovarian; IGROV1 ovarian; HL-60(TB) leukemia; MCF7 breast; HCT-116 colon; UO-31 renal; CAKI-1 renal; U251 CNS; CCRF-CEM leukemia; NCI-H460 lung; RXF 393 renal; SN12C renal.
What all share (test): NCI anticancer screen, dose series, 48 h

As for `c1cc(-c2ccc(-c3nc4ccc(C5=NCCN5)cc4s3)s2)ccc1C1=NCCN1`, the TGI in the assay on OVCAR-4 ovarian was 0.5 µM; with SK-MEL-2 melanoma, 2.96 µM; in the assay with PC-3 prostate, 2.27 µM; in the assay with OVCAR-5 ovarian it was 0.327 µM; in the assay on SW-620 colon, above 100 µM; in the assay on MDA-N, 1 µM. Besides, the TGI with OVCAR-8 ovarian worked out at 0.801 µM; with IGROV1 ovarian, 2.52 µM; in the assay on HL-60(TB) leukemia it was 2.08 µM; in the assay with MCF7 breast it was 0.255 µM; with HCT-116 colon it was 1.35 µM; with UO-31 renal it was 2.61 µM. The TGI in the assay with CAKI-1 renal was found to be 4.71 µM; in the assay with U251 CNS, 0.821 µM; in the assay on CCRF-CEM leukemia it was 0.574 µM.
With `O=[N+]([O-])C1=Cc2cc(Cl)ccc2OC1c1cccc2ccccc12` (stereo not drawn), the TGI in the assay on OVCAR-4 ovarian was determined as 3.09 µM; in the assay with SK-MEL-2 melanoma, 3.13 µM; with PC-3 prostate it was 2.23 µM; with OVCAR-5 ovarian, 4.05 µM; in the assay on SW-620 colon, 0.459 µM; in the assay on MDA-N it was 3.41 µM. The TGI in the assay with NCI-H460 lung was 5.28 µM; in the assay on OVCAR-8 ovarian, 1.42 µM; in the assay with IGROV1 ovarian, 2.87 µM; in the assay on HL-60(TB) leukemia, above 100 µM; with MCF7 breast, 2.16 µM; with HCT-116 colon, 0.355 µM. Moreover, the TGI was found to be 1.46 µM in the assay with RXF 393 renal; 2.54 µM in the assay on SN12C renal; 2.51 µM with UO-31 renal; 1.22 µM in the assay with CAKI-1 renal; 3.17 µM with U251 CNS.
As to `COC1=N[C@H](C(C)C)C(OC)=N[C@H]1Cc1ccc(C[C@@H]2N=C(OC)[C@@H](C(C)C)N=C2OC)s1`, the TGI in the assay on OVCAR-4 ovarian was above 100 µM; with SK-MEL-2 melanoma, 49.3 µM; in the assay on PC-3 prostate, 69.2 µM; with OVCAR-5 ovarian, 77.9 µM; with SW-620 colon, above 100 µM; in the assay with MDA-N, above 100 µM. Moreover, the TGI in the assay with NCI-H460 lung is above 100 µM; with OVCAR-8 ovarian it was above 100 µM; with IGROV1 ovarian it was above 100 µM; in the assay on MCF7 breast, 59.4 µM; in the assay on HCT-116 colon, above 100 µM; with SN12C renal, above 100 µM. Moreover, the TGI in the assay with UO-31 renal is above 100 µM; with CAKI-1 renal, above 100 µM; in the assay with U251 CNS, 70.5 µM; in the assay on CCRF-CEM leukemia, 50.3 µM.
`COC(=O)C1CCC(=O)N1CN(C(C)=O)c1cc(OC)ccc1OC` (stereo not drawn): the TGI with OVCAR-4 ovarian, with SK-MEL-2 melanoma, in the assay on PC-3 prostate, in the assay on OVCAR-5 ovarian, in the assay on SW-620 colon and in the assay on MDA-N was above 100 µM each time. Further, the TGI with NCI-H460 lung, in the assay with OVCAR-8 ovarian, in the assay with IGROV1 ovarian, with HL-60(TB) leukemia, in the assay on MCF7 breast and in the assay with HCT-116 colon was above 100 µM each time. In addition, the TGI in the assay on RXF 393 renal, in the assay on SN12C renal, in the assay with UO-31 renal, in the assay on CAKI-1 renal and in the assay on U251 CNS was above 100 µM throughout.
Consider `CN(C)CCCNc1ccc2nnn3c4ccc(OC(=O)c5ccccc5)cc4c(=O)c1c23`, for which the TGI in the assay with OVCAR-4 ovarian amounted to 11.7 µM; with SK-MEL-2 melanoma, 32.9 µM; in the assay on PC-3 prostate, 23.8 µM; with OVCAR-5 ovarian it was 30.4 µM; with SW-620 colon, 21.2 µM; with MDA-N, 30.1 µM. The TGI stood at 25.2 µM in the assay on NCI-H460 lung; 39.8 µM in the assay on OVCAR-8 ovarian; 36.3 µM in the assay with IGROV1 ovarian; 30 µM with MCF7 breast; 24.7 µM with HCT-116 colon; 12.8 µM in the assay with RXF 393 renal. Further, the TGI came out at 25.4 µM in the assay on SN12C renal; 20.8 µM with UO-31 renal; 10.7 µM in the assay on CAKI-1 renal; 29 µM in the assay on U251 CNS; 7.98 µM in the assay with CCRF-CEM leukemia.
Take `Cc1c2n(c3ccccc13)S(=O)(=O)c1ccccc1-2`: the TGI with OVCAR-4 ovarian is above 100 µM; in the assay with PC-3 prostate it was 61.3 µM; in the assay on OVCAR-5 ovarian, above 100 µM; in the assay on SW-620 colon, above 100 µM; with MDA-N it was above 100 µM; in the assay with NCI-H460 lung, above 100 µM. Besides, the TGI in the assay with OVCAR-8 ovarian was 60.1 µM; in the assay with IGROV1 ovarian, above 100 µM; with HL-60(TB) leukemia, above 100 µM; in the assay on MCF7 breast, above 100 µM; in the assay on HCT-116 colon it was above 100 µM; in the assay with UO-31 renal, 41.6 µM. The figures for the TGI with CAKI-1 renal, in the assay with U251 CNS and in the assay on CCRF-CEM leukemia were 27.4 µM, 37.9 µM and above 100 µM, respectively.
As to `N#Cc1cc2c(cc1C#N)/C(=N\c1cccc(N)n1)N=C2Nc1cccc(N)n1`, the TGI in the assay on SK-MEL-2 melanoma is above 100 µM; with PC-3 prostate, above 100 µM; with OVCAR-5 ovarian, above 100 µM; in the assay on SW-620 colon it was 60.1 µM; with MDA-N, 59.6 µM; in the assay with NCI-H460 lung it was above 100 µM. For the same molecule, the TGI was above 100 µM in the assay on OVCAR-8 ovarian; above 100 µM in the assay with IGROV1 ovarian; above 100 µM in the assay with HL-60(TB) leukemia; above 100 µM in the assay with MCF7 breast; 26.7 µM with HCT-116 colon; above 100 µM in the assay with SN12C renal. Also, the TGI in the assay with UO-31 renal was 47 µM; with CAKI-1 renal it was 34.1 µM; in the assay with U251 CNS, above 100 µM; with CCRF-CEM leukemia, above 100 µM.
Consider `CC(C)=Cc1cc(C)c2c3c(c(O)c(O)c(C)c13)C(C)=CC2=O`, for which the TGI in the assay on SK-MEL-2 melanoma was 44.2 µM; with PC-3 prostate, above 100 µM; in the assay on OVCAR-5 ovarian it was 73.3 µM; in the assay on SW-620 colon, above 100 µM; in the assay with MDA-N, above 100 µM; with NCI-H460 lung, 55.9 µM. For the same molecule, the TGI in the assay with OVCAR-8 ovarian was above 100 µM; with IGROV1 ovarian, above 100 µM; in the assay with HL-60(TB) leukemia, 67 µM; with MCF7 breast, 68.7 µM; with HCT-116 colon, 37.7 µM; with SN12C renal, above 100 µM. The TGI with UO-31 renal is above 100 µM; in the assay on CAKI-1 renal it was 58.5 µM; in the assay on U251 CNS, 92 µM.
